Assay results reported in patent US6410320B1, “Method and compositions for isolation and growth of kidney tubule stem cells, in vitro kidney tubulogenesis and ex vivo construction of renal tubules” (The University of Michigan, priority 1992, dated 2002).

System: renal proximal tubule cells
Assay: Phenotypic transformation / lumen formation (tubulogenesis) in a confluent monolayer, by light and electron microscopy
Format: cell-based, rabbit
Details: density-arrested confluent monolayer; where present TGF-β1 10 ng/ml, EGF 1 nM, RA 0.1 μM; 144 hours in Example 1
Experimental: Rabbit renal proximal tubule cells were grown in primary culture by techniques reported by Humes et al. in Lab. Invest. 64:538-45 (1991). The cells were grown in 35 mm Corning culture dishes with serum-free, hormonally defined Dulbecco's Modified Eagle Hams F-12 media (1:1, v/v) containing L-glutamine, penicillin, streptomycin, 50 nM hydrocortisone, 5 μg/ml of insulin, and 5 μg/ml of transferrin. The cultures were maintained in a humidified 5% CO2/95% air incubator at 37° C. Medium was changed every 3 to 5 days, depending on nutrient requirements based upon cell number. Cultures became confluent in 9 to 12 days. Once confluent, various agents as described below were added in 20 μl aliquots at various times to promote changes in morphologic phenotype or pattern formation.
Specimens for ultrastructural analysis were fixed with 2% glutaraldehyde in Sorenson's buffer (pH 7.2, 310 mOsm). Postfixation occurred in 1% OsO4 followed by dehydration in ethanol. Specimens were transferred through propylene oxide into monomer mixture (poly/Bed 812A, Araldite, DDSA and DMP-30) and polymerized at 60° C. Thin sections were stained with uranyl acetate and lead citrate, and examined in a Zeiss 9-S2 transmission electron microscope.
Of note, in each aggregation of cells one or two lumen structures were usually observed in random sectioning of tissue culture preparations. […]

Molecule | morphologic phenotype of the monolayer / lumen formation
CC1=C(/C=C/C(C)=C/C=C/C(C)=C/C(=O)O)C(C)(C)CCC1 [RA, all-trans retinoic acid] | no dramatic effect on the appearance of the monolayer
TGF-β1: transforming growth factor-β1 (porcine platelets) from R & D Systems | no lumen formation was observed
